Measured values reported in the NIST ThermoML archive (doi:10.1021/je200683f).

Conditions: Liquid, Transpiration method

NC=O [formamide]
Conditions	vapor or sublimation pressure [kPa]
303.4 K	0.0143
308.2 K	0.0201
313.2 K	0.0305
318.2 K	0.0455
323.2 K	0.0636
328.2 K	0.0915
333.2 K	0.1243
338.2 K	0.1674
343.2 K	0.2297
348.2 K	0.3121
353.3 K	0.4543
358.2 K	0.5468
363.2 K	0.7803
368.1 K	0.9855
373.2 K	1.271
376 K	1.476
